Laboratory results taken from patent US9120804B2, “8-substituted 2-amino-[1,2,4] triazolo [1, 5-A] pyrazines as Syk tryrosine kinase inhibitors and GCN2 serin kinase inhibitors” (Merck Patent GmbH, priority 2012, dated 2015).

The compounds below were run against T1, SYK (Homo sapiens, UniProt P43405) (assay: SYK flash plate assay (enzyme assay)).
T1 construct: 2.5 nM SYK, 400 nM Biotin-Aha-Aha-KEDPDYEWPSAKK
Assay type: biochemical
Experimental: The kinase assay is performed either as 384-well Flashplate assay (for e.g. Topcount measurement) or as 384-well Image-Flashplate assay (for LEADseeker measurement).
2.5 nM SYK, 400 nM Biotin-Aha-Aha-KEDPDYEWPSAKK
and 10 μM ATP (spiked with 0.3 μCi 33P-ATP/well) are incubated in a total volume of 50 μl (60 mM Hepes, 10 mM MgCl2, 1.2 mM Dithiothreitol, 0.02% Brij35, 0.1% BSA, pH 7.5) with or without test compound for 1 hours at 30° C. The reaction is stopped with 25 μl 200 mM EDTA. After 30 Min at 30° C. the liquid is removed and each well washed thrice with 100 μl 0.9% sodium chloride solution. Non-specific reaction is determined in presence of […] Staurosporine. Radioactivity is measured with Topcount (when using Flashplates) or with LEADseeker (when using Image-Flashplates) respectively. Results (e.g. IC50-values) are calculated with program tools provided by the IT-department (e.g. Symyx Assay Explorer, Genedata Screener). In Vivo Assays CIA

IC50	SMILES
< 0.1 µM	CC1(C)C(=O)Nc2cc(Nc3nc4c(N5CCC6(CC5)NC(=O)NC6=O)nccn4n3)ccc21 [E28, 8-[2-(3,3-dimethyl-2-oxo-2,3-dihydro-1H-indol-6-ylamino)-[1,2,4]triazolo[1,5-a]pyrazin-8-yl]-1,3,8-triaza-spiro[4.5]decane-2,4-dione]
3 to 50 µM	CC1(C)C(=O)Nc2cc(Nc3nc4c(N5CCC(CO)C5)nccn4n3)ccc21 (stereo not drawn) [E30, 6-[8-(3-hydroxymethyl-pyrrolidin-1-yl)-[1,2,4]triazolo[1,5-a]pyrazin-2-ylamino]-3,3-dimethyl-1,3-dihydro-indol-2-one]
0.1 to 0.3 µM	CC1(C)C(=O)Nc2cc(Nc3nc4c(N5CCC(COC=O)C5)nccn4n3)ccc21 (stereo not drawn) [E34, formic acid 1-[2-(3,3-dimethyl-2-oxo-2,3-dihydro-1H-indol-6-ylamino)-[1,2,4]triazolo[1,5-a]pyrazin-8-yl]pyrrolidin-3-ylmethyl ester]
0.1 to 0.3 µM	Cc1nc(C2CCN(c3nccn4nc(Nc5ccc6c(c5)NC(=O)C6(C)C)nc34)CC2)[nH]c1C [E37, 6-{8-[4-(4,5-dimethyl-1H-imidazol-2-yl)-piperidin-1-yl]-[1,2,4]triazolo[1,5-a]pyrazin-2-ylamino}-3,3-dimethyl-1,3-dihydro-indol-2-one]
0.1 to 0.3 µM	CNS(=O)(=O)C1CCN(c2nccn3nc(Nc4ccc5c(c4)NC(=O)C5(C)C)nc23)CC1 [E38, 1-[2-(3,3-dimethyl-2-oxo-2,3-dihydro-1H-indol-6-ylamino)-[1,2,4]triazolo[1,5-a]pyrazin-8-yl]-piperidine-4-sulfonic acid methylamide]
< 0.1 µM	CC1(C)C(=O)Nc2cc(Nc3nc4c(N5CCC(S(N)(=O)=O)CC5)nccn4n3)ccc21 [E39, 1-[2-(3,3-dimethyl-2-oxo-2,3-dihydro-1H-indol-6-ylamino)-[1,2,4]triazolo[1,5-a]pyrazin-8-yl]-piperidine-4-sulfonic acid amide]
< 0.1 µM	CC1(C)C(=O)Nc2cc(Nc3nc4c(N5CCC(C(N)=O)CC5)nccn4n3)ccc21 [E40, 1-[2-(3,3-dimethyl-2-oxo-2,3-dihydro-1H-indol-6-ylamino)-[1,2,4]triazolo[1,5-a]pyrazin-8-yl]-piperidine-4-carboxylic acid amide]
< 0.1 µM	CC1(C)C(=O)Nc2cc(Nc3nc4c(N5CCCC5)nccn4n3)ccc21 [E41, 3,3-dimethyl-6-(8-pyrrolidin-1-yl-[1,2,4]triazolo[1,5-a]pyrazin-2-ylamino)-1,3-dihydro-indol-2-one]
< 0.1 µM	CC1CCCN1c1nccn2nc(Nc3ccc4c(c3)NC(=O)C4(C)C)nc12 (stereo not drawn) [E42, 3,3-dimethyl-6-[8-(2-methyl-pyrrolidin-1-yl)-[1,2,4]triazolo[1,5-a]pyrazin-2-ylamino]-1,3-dihydro-indol-2-one]
< 0.1 µM	CC1CCC(C)N1c1nccn2nc(Nc3ccc4c(c3)NC(=O)C4(C)C)nc12 (stereo not drawn) [E43, 6-[8-(2,5-dimethyl-pyrrolidin-1-yl)-[1,2,4]triazolo[1,5-a]pyrazin-2-ylamino]-3,3-dimethyl-1,3-dihydro-indol-2-one]
< 0.1 µM	CCC1(O)CCN(c2nccn3nc(Nc4ccc5c(c4)NC(=O)C5(C)C)nc23)CC1 [E44, 6-[8-(4-ethyl-4-hydroxy-piperidin-1-yl)-[1,2,4]triazolo[1,5-a]pyrazin-2-ylamino]-3,3-dimethyl-1,3-dihydro-indol-2-one]

Further lines, the compound ahead of its results:

SMILES	IC50
Cn1cc(-c2nccn3nc(Nc4ccc5c(c4)NC(=O)NC5(C)C)nc23)cn1 [E26, 4,4-dimethyl-7-[8-(1-methyl-1H-pyrazol-4-yl)-[1,2,4]triazolo[1,5-a]pyrazin-2-ylamino]-3,4-dihydro-1H-quinazolin-2-one]	< 0.1 µM
CC1(C)C(=O)Nc2cc(Nc3nc4c(N5CCC6(CC5)CNC(=O)O6)nccn4n3)ccc21 [E27, 8-[2-(3,3-dimethyl-2-oxo-2,3-dihydro-1H-indol-6-ylamino)-[1,2,4]triazolo[1,5-a]pyrazin-8-yl]-1-oxa-3,8-diaza-spiro[4.5]decan-2-one]	< 0.1 µM
CC1(C)C(=O)Nc2cc(Nc3nc4c(N5C[C@@H](O)C[C@H]5c5ccccc5)nccn4n3)ccc21 [E29, 6-[8-((2S,4S)-4-hydroxy-2-phenyl-pyrrolidin-1-yl)-[1,2,4]triazolo[1,5-a]pyrazin-2-ylamino]-3,3-dimethyl-1,3-dihydro-indol-2-one]	3 to 50 µM
COc1cccc(Nc2nc3c(-c4ccccc4C#N)nccn3n2)c1 [E31, 2-[2-(3-methoxy-phenylamino)-[1,2,4]triazolo[1,5-a]pyrazin-8-yl]-benzonitrile]	< 0.1 µM
CC1(C)C(=O)Nc2cc(Nc3nc4c(N5Cc6cn[nH]c6C5)nccn4n3)ccc21 [E32, 6-[8-(4,6-dihydro-1H-pyrrolo[3,4-c]pyrazol-5-yl)-[1,2,4]triazolo[1,5-a]pyrazin-2-ylamino]-3,3-dimethyl-1,3-dihydro-indol-2-one]	< 0.1 µM
CC1(C)C(=O)Nc2cc(Nc3nc4c(N5CC6C(=O)NC(=O)C6C5)nccn4n3)ccc21 (stereo not drawn) [E33, 5-[2-(3,3-dimethyl-2-oxo-2,3-dihydro-1H-indol-6-ylamino)-[1,2,4]triazolo[1,5-a]pyrazin-8-yl]-tetrahydro-pyrrolo[3,4-c]pyrrole-1,3-dione]	0.1 to 0.3 µM
CC1(C)C(=O)Nc2cc(Nc3nc4c(N5CCC6(CCC(=O)N6)CC5)nccn4n3)ccc21 [E35, 8-[2-(3,3-dimethyl-2-oxo-2,3-dihydro-1H-indol-6-ylamino)-[1,2,4]triazolo[1,5-a]pyrazin-8-yl]-1,8-diaza-spiro[4.5]decan-2-one]	< 0.1 µM
Cn1cc(-c2nccn3nc(Nc4ccc(CS(=O)(=O)O)c(N)c4)nc23)cn1 [E36, {2-amino-4-[8-(1-methyl-1H-pyrazol-4-yl)-[1,2,4]triazolo[1,5-a]pyrazin-2-ylamino]-phenyl}-methanesulfonic acid]	0.1 to 0.3 µM
CC1(C)NC(=O)Nc2cc(Nc3nc4c(N5CCC6(CC5)CNC(=O)O6)nccn4n3)ccc21 [E45, 4,4-dimethyl-7-[8-(2-oxo-1-oxa-3,8-diaza-spiro[4.5]dec-8-yl)-[1,2,4]triazolo[1,5-a]pyrazin-2-ylamino]-3,4-dihydro-1H-quinazolin-2-one]	< 0.1 µM
CC1(C)CC(=O)Nc2cc(Nc3nc4c(N5CCC6(CC5)CNC(=O)O6)nccn4n3)ccc21 [E46, 4,4-dimethyl-7-[8-(2-oxo-1-oxa-3,8-diaza-spiro[4.5]dec-8-yl)-[1,2,4]triazolo[1,5-a]pyrazin-2-ylamino]-3,4-dihydro-1H-quinolin-2-one]	< 0.1 µM
CC1(C)OC(=O)Nc2cc(Nc3nc4c(N5CCC6(CC5)CNC(=O)O6)nccn4n3)ccc21 [E47, 4,4-dimethyl-7-[8-(2-oxo-1-oxa-3,8-diaza-spiro[4.5]dec-8-yl)-[1,2,4]triazolo[1,5-a]pyrazin-2-ylamino]-1,4-dihydro-benzo[d][1,3]oxazin-2-one]	< 0.1 µM
CC1(C)CC(=O)Nc2cc(Nc3nc4c(N5CC[C@@]6(CC(=O)NC6=O)C5)nccn4n3)ccc21 [E48, (R)-7-[2-(4,4-dimethyl-2-oxo-1,2,3,4-tetrahydro-quinolin-7-ylamino)-[1,2,4]triazolo[1,5-a]pyrazin-8-yl]-2,7-diaza-spiro[4.4]nonane-1,3-dione]	< 0.1 µM
CC1(C)CC(=O)Nc2cc(Nc3nc4c(N5CC[C@]6(CC(=O)NC6=O)C5)nccn4n3)ccc21 [E49, (S)-7-[2-(4,4-dimethyl-2-oxo-1,2,3,4-tetrahydro-quinolin-7-ylamino)-[1,2,4]triazolo[1,5-a]pyrazin-8-yl]-2,7-diaza-spiro[4.4]nonane-1,3-dione]	< 0.1 µM
